Assay results taken from patent publication US8785399B2, “Antibacterial peptides” (Spiderbiotech S.R.A., priority 2008, dated 2014).
Converted amounts (≈) assume the structure as drawn. Positions of bridges follow the written chain, without caps; N, C: chain ends. Non-standard residues stand in square brackets, D forms with d. Residues, ends and D or L forms follow the SMILES beside them. Chains are numbered I, II in the order given. Aoc = NCCCCCCCC(=O)O; Ava = NCCCCC(=O)O; βAla = NCCC(=O)O

Assays:
E. coli ATCC 25922 = assay: MIC by broth microdilution, E. coli reference strain; assay type: cell-based, Escherichia coli; settings: ATCC 25922
Description: (§1) Determination of MIC. MICs were determined in MHB by the broth microdilution methodology, according to CLSI procedure (formerly NCCLS, Ref. 11) by using final bacterial inocula of 1-5×10^5 CFU/mL. Assays were performed in sterile 96-well microtiter plates with round bottom wells (Corning Costar). Plates were incubated at 37° C. and read after 20-24 h. MIC was defined as the lowest drug concentration causing complete suppression of visible bacterial growth. All compounds were dissolved in (5% v/v DMSO).
All natural aminoacids have been divided into three groups based on their chemical-physical properties. A total amount of 27 minilibraries, each one containing six peptide in equimolar amounts, were obtained and assayed against E. coli ATCC 25922 as reference strain. MIC (Minimum Inhibitory Concentration) is defined as the lowest concentration inhibiting 100% of visible growth.

[1] = system: Pseudomonas aeruginosa ATCC 27853; assay: MIC by broth microdilution, P. aeruginosa reference strain; assay type: cell-based; settings: ATCC 27853
Description: as §1
(§2) These peptides were synthesized individually, in order to assay the activity of each sequence.

[2] = system: Klebsiella pneumoniae ATCC 10031; assay: MIC by broth microdilution, K. pneumoniae reference strain; assay type: cell-based; settings: ATCC 10031
Description: as §1, §2

[3] = system: Staphylococcus aureus ATCC 25923
Description: as §1, §2

Row | Compound | MIC (ug/mL) E. coli (E. coli ATCC 25922) | MIC (ug/mL) P. aeruginosa [1] | MIC (ug/mL) K. pneumoniae [2] | MIC (ug/mL) S. aureus [3]
1 | CC[C@H](C)[C@H](NC(=O)[C@H](CCCCN)NC(=O)[C@H](CCCCN)NC(=O)[C@H](Cc1c[nH]c2ccccc12)NC(=O)CCCCCCCN)C(=O)N[C@@H](CCCNC(=N)N)C(=O)N[C@H](C(=O)N[C@@H](CCCNC(=N)N)C(=O)N[C@@H](CC(C)C)C(=O)N[C@@H](CO)C(=O)N[C@@H](C)C(N)=O)C(C)C [ID15, H-8-Aoa-W-KKIRVRLSA-NH2] (H-[Aoc]WKKIRVRLSA-NH2) | 32 µg/mL (≈ 22.9 µM) | >64 µg/mL | >64 µg/mL | 
2 | CC[C@H](C)[C@H](NC(=O)[C@H](CCCCN)NC(=O)[C@H](Cc1c[nH]c2ccccc12)NC(=O)[C@H](CCC(N)=O)NC(=O)CCCCCCCN)C(=O)N[C@@H](CCCNC(=N)N)C(=O)N[C@H](C(=O)N[C@@H](CCCNC(=N)N)C(=O)N[C@@H](CC(C)C)C(=O)N[C@@H](CO)C(=O)N[C@@H](C)C(N)=O)C(C)C [ID16, H-8-Aoa-Q-W-KIRVRLSA-NH2] (H-[Aoc]QWKIRVRLSA-NH2) | 32 µg/mL (≈ 22.9 µM) | >64 µg/mL | >64 µg/mL | 
3 | CC[C@H](C)[C@H](NC(=O)[C@H](CCCCN)NC(=O)[C@H](CCCCN)NC(=O)[C@H](CCC(N)=O)NC(=O)CCCCCCCN)C(=O)N[C@@H](CCCNC(=N)N)C(=O)N[C@H](C(=O)N[C@@H](CCCNC(=N)N)C(=O)N[C@@H](CC(C)C)C(=O)N[C@@H](CO)C(=O)N[C@@H](C)C(N)=O)C(C)C [ID17, H-8-Aoa-QKKIRVRLSA-NH2] (H-[Aoc]QKKIRVRLSA-NH2) | 64 µg/mL (≈ 47.8 µM) | >64 µg/mL | >64 µg/mL | 
4 | CC[C@H](C)[C@H](NC(=O)[C@H](CCCCN)NC(=O)[C@H](Cc1c[nH]c2ccccc12)NC(=O)[C@H](CCC(N)=O)NC(=O)CN)C(=O)N[C@@H](CCCNC(=N)N)C(=O)N[C@H](C(=O)N[C@@H](CCCNC(=N)N)C(=O)N[C@@H](CC(C)C)C(=O)N[C@@H](CO)C(=O)N[C@@H](C)C(=O)NCCCC[C@H](NC(=O)[C@H](C)NC(=O)[C@H](CO)NC(=O)[C@H](CC(C)C)NC(=O)[C@H](CCCNC(=N)N)NC(=O)[C@@H](NC(=O)[C@H](CCCNC(=N)N)NC(=O)[C@@H](NC(=O)[C@H](CCCCN)NC(=O)[C@H](Cc1c[nH]c2ccccc12)NC(=O)[C@H](CCC(N)=O)NC(=O)CN)[C@@H](C)CC)C(C)C)C(=O)NCCC(N)=O)C(C)C [ID19, (H-G-Q-W-KIRVRLSA)2-Lys-β-Ala-NH2] (I: H-GQWKIRVRLSAK[βAla]-NH2 / II: H-GQWKIRVRLSA; amide I:12-II:C) | 16 µg/mL (≈ 5.7 µM) | >64 µg/mL | >64 µg/mL | 
5 | CC[C@H](C)[C@H](NC(=O)[C@H](CCCCN)NC(=O)[C@H](CCCCN)NC(=O)[C@H](CCC(N)=O)NC(=O)CN)C(=O)N[C@@H](CCCNC(=N)N)C(=O)N[C@H](C(=O)N[C@@H](CCCNC(=N)N)C(=O)N[C@@H](CC(C)C)C(=O)N[C@@H](CO)C(=O)N[C@@H](C)C(=O)NCCCC[C@H](NC(=O)[C@H](C)NC(=O)[C@H](CO)NC(=O)[C@H](CC(C)C)NC(=O)[C@H](CCCNC(=N)N)NC(=O)[C@@H](NC(=O)[C@H](CCCNC(=N)N)NC(=O)[C@@H](NC(=O)[C@H](CCCCN)NC(=O)[C@H](CCCCN)NC(=O)[C@H](CCC(N)=O)NC(=O)CN)[C@@H](C)CC)C(C)C)C(=O)NCCC(N)=O)C(C)C [ID20, (H-G-QKKIRVRLSA)2-Lys-β-Ala-NH2] (I: H-GQKKIRVRLSAK[βAla]-NH2 / II: H-GQKKIRVRLSA; amide I:12-II:C) | 16 to 32 µg/mL | >64 µg/mL | >64 µg/mL | 
6 | CC[C@H](C)[C@H](NC(=O)[C@H](CCCCN)NC(=O)[C@H](CCCCN)NC(=O)[C@H](Cc1c[nH]c2ccccc12)NC(=O)CCCCN)C(=O)N[C@@H](CCCNC(=N)N)C(=O)N[C@H](C(=O)N[C@@H](CCCNC(=N)N)C(=O)N[C@@H](CC(C)C)C(=O)N[C@@H](CO)C(=O)N[C@@H](C)C(=O)NCCCC[C@H](NC(=O)[C@H](C)NC(=O)[C@H](CO)NC(=O)[C@H](CC(C)C)NC(=O)[C@H](CCCNC(=N)N)NC(=O)[C@@H](NC(=O)[C@H](CCCNC(=N)N)NC(=O)[C@@H](NC(=O)[C@H](CCCCN)NC(=O)[C@H](CCCCN)NC(=O)[C@H](Cc1c[nH]c2ccccc12)NC(=O)CCCCN)[C@@H](C)CC)C(C)C)C(=O)NCCC(N)=O)C(C)C [ID21, (H-5-Ava-W-KKIRVRLSA)2-Lys-β-Ala-NH2] (I: H-[Ava]WKKIRVRLSAK[βAla]-NH2 / II: H-[Ava]WKKIRVRLSA; amide I:12-II:C) | 8 to 16 µg/mL | 64 µg/mL (≈ 22.1 µM) | 64 µg/mL (≈ 22.1 µM) | 
7 | CC[C@H](C)[C@H](NC(=O)[C@H](CCCCN)NC(=O)[C@H](Cc1c[nH]c2ccccc12)NC(=O)[C@H](CCC(N)=O)NC(=O)CCCCN)C(=O)N[C@@H](CCCNC(=N)N)C(=O)N[C@H](C(=O)N[C@@H](CCCNC(=N)N)C(=O)N[C@@H](CC(C)C)C(=O)N[C@@H](CO)C(=O)N[C@@H](C)C(=O)NCCCC[C@H](NC(=O)[C@H](C)NC(=O)[C@H](CO)NC(=O)[C@H](CC(C)C)NC(=O)[C@H](CCCNC(=N)N)NC(=O)[C@@H](NC(=O)[C@H](CCCNC(=N)N)NC(=O)[C@@H](NC(=O)[C@H](CCCCN)NC(=O)[C@H](Cc1c[nH]c2ccccc12)NC(=O)[C@H](CCC(N)=O)NC(=O)CCCCN)[C@@H](C)CC)C(C)C)C(=O)NCCC(N)=O)C(C)C [ID22, (H-5-Ava-Q-W-KIRVRLSA)2-Lys-β-Ala-NH2] (I: H-[Ava]QWKIRVRLSAK[βAla]-NH2 / II: H-[Ava]QWKIRVRLSA; amide I:12-II:C) | 16 µg/mL (≈ 5.53 µM) | >64 µg/mL | >64 µg/mL | 
8 | CC[C@H](C)[C@H](NC(=O)[C@H](CCCCN)NC(=O)[C@H](CCCCN)NC(=O)[C@H](CCC(N)=O)NC(=O)CCCCCCCN)C(=O)N[C@@H](CCCNC(=N)N)C(=O)N[C@H](C(=O)N[C@@H](CCCNC(=N)N)C(=O)N[C@@H](CC(C)C)C(=O)N[C@@H](CO)C(=O)N[C@@H](C)C(=O)NCCCC[C@H](NC(=O)[C@H](C)NC(=O)[C@H](CO)NC(=O)[C@H](CC(C)C)NC(=O)[C@H](CCCNC(=N)N)NC(=O)[C@@H](NC(=O)[C@H](CCCNC(=N)N)NC(=O)[C@@H](NC(=O)[C@H](CCCCN)NC(=O)[C@H](CCCCN)NC(=O)[C@H](CCC(N)=O)NC(=O)CCCCCCCN)[C@@H](C)CC)C(C)C)C(=O)NCCC(N)=O)C(C)C [ID23, (H-8-Aoa-OKKIRVRLSA)2-Lys-β-Ala-NH2] (I: H-[Aoc]QKKIRVRLSAK[βAla]-NH2 / II: H-[Aoc]QKKIRVRLSA; amide I:12-II:C) | 32 µg/mL (≈ 11.2 µM) | >64 µg/mL | >64 µg/mL | 
9 | H-FKKIRVRLSA-OH [ID2, H-F-KKIRVRLSA-OH] | 256 µg/mL | 256 µg/mL | 512 µg/mL | 512 µg/mL
10 | H-GQWKIRVRLSA-OH [ID14, H-G-Q-W-KIRVRLSA-OH] | 64 µg/mL | 64 µg/mL | >512 µg/mL | >512 µg/mL
11 | H-IKKIRVRLSA-OH [ID3, H-I-KKIRVRLSA-OH] | 256 µg/mL | 256 µg/mL | 512 µg/mL | 512 µg/mL
12 | H-QKKIRVRLSA-OH [ID1, H-QKKIRVRLSA-OH, reference compound] |  | >512 µg/mL | >512 µg/mL | 
